# Results published in US20170037030A1, “AUTOTAXIN INHIBITORS” (NOVARTIS AG, priority 2014, published 2017).
# Target: T1, Recombinant human ATX (Homo sapiens, UniProt Q13822)
# T1 construct: made in house; host or cells: human embryonic kidney (HEK) cells
# Experiment: ATX inhibition assay (released choline, Amplex Red fluorescence)
# Assay type: biochemical
# Settings: ATX 10 nM, LPC 18:1 10 μM, pre-incubated with ATX at 37° C. for 20 minutes; mean of n≧2
# Protocol: Reagents—LPC (oleoyl (18:1)) was purchased from Avert Polar Lipids (Alabaster, Ala.) and solubilized in methanol to 20 mM. Amplex Red was obtained from Invitrogen Life Technologies (Paisley, UK) and dissolved in DMSO to 10 mM. Choline oxidase and horseradish peroxidase (HRP) were obtained from Sigma Aldrich (Dorset, UK) and dissolved in HBSS to 20 U/ml and 200 U/ml respectively. All reagents were stored at −20° C. in single use aliquots. All experimental measurements were performed in assay buffer made up immediately prior to use (HBSS, 0.01% BSA essentially fatty acid free). […]
# Method—All experimental measurements were performed in black 384 well polystyrene (low volume, round bottom, Corning (3676)) plates. PerkinElmer EnVision (Fluorescence Intensity/Absorbance Monochromator) or Tecan Infinite 200 PRO series plate reader was used to detect change in fluorescent intensity.
# Assessing ATX inhibition—ATX activity was determined by measurement of released choline in reactions containing ATX (10 nM), choline oxidase (0.1 U/ml), HRP (100 U/ml), amplex red (50 μM) and LPC 18:1 (10 μM). […] The liberated choline was measured from changes in fluorescence intensity (Aex 530 nm, Aem 590 nm) of the product resurofin at 37° C. every 2 minutes over a 40-minute period. ATX activity was measured as a slope of the linear portion of the progress curve, typically between 14 to 24 minutes. […]
row,IC50,Compound
1,70 nM,"O=C(CCC(=O)c1c[nH]nn1)NC1CCN(C(=O)OCc2cc(Cl)cc(Cl)c2)CC1 [Example 1, 3,5-dichlorobenzyl 4-(4-oxo-4-(1H-1,2,3-triazol-4-yl)butanamido)piperidine-1-carboxylate]"
2,10 nM,"O=C(CCC(O)c1c[nH]nn1)NC1CCN(C(=O)OCc2cc(Cl)cc(Cl)c2)CC1 (centres unmarked) [Example 2, 3,5-dichlorobenzyl 4-(4-hydroxy-4-(1H-1,2,3-triazol-4-yl)butanamido)piperidine-1-carboxylate]"
